By EC50 is commonly meant the concentration needed to bring the measured effect to its halfway point. One may read the IC50 as the concentration that inhibits the measured activity by half.

The test system of one experiment is DoHH2. Briefly: CellTiter-Glo proliferation/viability assay. The note with it: Homo sapiens, DOHH-2; 48 hrs; read-out: DoHH2 EC50. It counts as cell-based, human.
In a further experiment the test system is Ramos. Description: CellTiter-Glo proliferation/viability assay. The format is cell-based, human. Conditions: Homo sapiens, Ramos, read-out: Ramos EC50.
The target of experiment [1] is T1, Src (Homo sapiens (Human), UniProt P12931). Briefly: biochemical.
Experiment [2] concerns the target T2, Lyn (Homo sapiens (Human), UniProt P07948). Briefly: biochemical.
For another experiment, the target named is BTK (Homo sapiens (Human), UniProt Q06187).
The target in experiment [3] is T2, Lyn. The note with it: read-out: Lyn IC50.
Experiment [4] has as its target T1, Src. Conditions: read-out: Src IC50.

Read-outs that look alike come from different tables or passages of the source. A value given as a limit tells only on which side of the number the result lay.

T2 sequence (P07948 whole entry): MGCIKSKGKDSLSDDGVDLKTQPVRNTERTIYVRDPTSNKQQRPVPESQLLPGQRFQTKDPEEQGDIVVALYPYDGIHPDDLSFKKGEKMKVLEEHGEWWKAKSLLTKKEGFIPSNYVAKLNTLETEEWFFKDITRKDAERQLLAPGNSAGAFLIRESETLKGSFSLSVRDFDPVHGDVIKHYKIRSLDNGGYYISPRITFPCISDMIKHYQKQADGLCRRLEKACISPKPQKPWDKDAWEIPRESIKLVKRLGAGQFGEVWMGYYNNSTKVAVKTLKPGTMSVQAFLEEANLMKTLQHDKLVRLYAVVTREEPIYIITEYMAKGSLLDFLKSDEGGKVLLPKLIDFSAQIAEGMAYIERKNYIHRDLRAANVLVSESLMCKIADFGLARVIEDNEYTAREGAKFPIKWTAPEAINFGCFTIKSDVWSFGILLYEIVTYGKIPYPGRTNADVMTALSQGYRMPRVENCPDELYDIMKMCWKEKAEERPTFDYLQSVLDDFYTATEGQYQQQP
T1 sequence (P12931 whole entry, looked up): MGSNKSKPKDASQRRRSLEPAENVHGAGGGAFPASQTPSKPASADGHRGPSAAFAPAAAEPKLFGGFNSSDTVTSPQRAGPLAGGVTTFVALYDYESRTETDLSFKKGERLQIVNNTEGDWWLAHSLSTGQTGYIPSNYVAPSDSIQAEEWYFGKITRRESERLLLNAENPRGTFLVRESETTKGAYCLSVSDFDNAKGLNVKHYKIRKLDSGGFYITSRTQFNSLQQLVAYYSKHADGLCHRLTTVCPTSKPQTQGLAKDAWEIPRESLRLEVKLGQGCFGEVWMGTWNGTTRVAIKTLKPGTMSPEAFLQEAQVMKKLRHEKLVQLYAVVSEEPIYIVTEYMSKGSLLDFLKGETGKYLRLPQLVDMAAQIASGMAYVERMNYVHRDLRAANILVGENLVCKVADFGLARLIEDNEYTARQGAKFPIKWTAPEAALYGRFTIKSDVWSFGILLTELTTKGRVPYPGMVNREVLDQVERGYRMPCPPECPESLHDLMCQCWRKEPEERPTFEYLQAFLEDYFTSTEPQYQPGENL
BTK, sequence (Q06187 whole entry): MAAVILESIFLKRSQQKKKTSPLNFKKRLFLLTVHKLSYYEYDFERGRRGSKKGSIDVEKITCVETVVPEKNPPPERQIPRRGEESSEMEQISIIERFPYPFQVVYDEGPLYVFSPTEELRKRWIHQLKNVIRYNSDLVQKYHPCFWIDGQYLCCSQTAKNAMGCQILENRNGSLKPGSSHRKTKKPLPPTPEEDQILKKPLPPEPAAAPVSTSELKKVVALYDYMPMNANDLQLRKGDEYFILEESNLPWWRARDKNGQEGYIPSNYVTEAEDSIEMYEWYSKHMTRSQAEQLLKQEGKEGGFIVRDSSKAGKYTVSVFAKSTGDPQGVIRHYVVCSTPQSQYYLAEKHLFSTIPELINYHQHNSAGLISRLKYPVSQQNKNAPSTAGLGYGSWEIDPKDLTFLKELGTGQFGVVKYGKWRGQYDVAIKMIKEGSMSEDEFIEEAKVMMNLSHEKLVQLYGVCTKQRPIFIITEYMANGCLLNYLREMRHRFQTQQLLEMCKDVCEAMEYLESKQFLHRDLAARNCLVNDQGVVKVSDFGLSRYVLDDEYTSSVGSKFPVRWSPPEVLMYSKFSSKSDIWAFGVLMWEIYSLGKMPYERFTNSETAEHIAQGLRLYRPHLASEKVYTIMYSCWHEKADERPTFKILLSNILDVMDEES

For the compound `CCn1c(=O)c(-c2ccccc2)cc2cnc(Nc3ccc(N4CCOCC4)cn3)cc21` [Compound 44, 1-Ethyl-7-(5-morpholin-4-yl-pyridin-2-ylamino)-3-phenyl-1H-[1,6]naphthyridin-2-one], the 50% effective concentration (EC50) with DoHH2 is < 1000 nM; in the experiment with Ramos (48 hrs), 1000 to 10000 nM. The IC50 is 100 to 1000 nM against Src [1], 100 to 1000 nM against Lyn [2] and > 5000 nM on BTK (read-out: BTK IC50).
Regarding `CCn1c(=O)c(C#CCOC)cc2cnc(Nc3ccc(C)cn3)cc21` [Compound 32], the EC50 in the experiment with DoHH2 and in the experiment on Ramos (48 h) was > 10000 nM each time. Further, the IC50 on Lyn [3] is > 5000 nM; against Src [1], 1000 to 5000 nM; at BTK (read-out: BTK IC50) it was > 5000 nM.
With `O=c1c(-c2c(F)cccc2F)cc2cnc(Nc3ccc(F)cn3)cc2n1C1CCOC1` (single isomer, unassigned) [Compound 141, (S or R)-3-(2,6-difluorophenyl)-7-((5-fluoropyridin-2-yl)amino)-1-(tetrahydrofuran-3-yl)-1,6-naphthyridin-2(1H)-one], the EC50 was < 1000 nM with DoHH2 and 1000 to 10000 nM with Ramos (48 h). For the same compound, the IC50 is < 100 nM against Src [1] and 100 to 1000 nM at Lyn [2] (Lyn IC50).
Consider `CCn1c(=O)c(C2CCCC2)cc2cnc(Nc3ccc(C)cn3)cc21` [Compound 31, 3-Cyclopentyl-1-ethyl-7-(5-methyl-pyridin-2-ylamino)-1H-[1,6]naphthayridin-2-one], for which the EC50 in the experiment on DoHH2 was > 10000 nM; in the experiment on Ramos (48 h) it was 1000 to 10000 nM. For the same compound, the IC50 on Lyn [3] is > 5000 nM; at Src [1], 100 to 1000 nM; on BTK (read-out: BTK IC50), > 5000 nM.
On to `CCn1c(=O)c(-c2ccc(C)cc2)cc2cnc(Nc3ccc(C)cn3)cc21` [Compound 40, 1-ethyl-7-(5-methylpyridin-2-ylamino)-3-p-tolyl-1,6-naphthyridin-2(1H)-one], for which the EC50 with DoHH2 and with Ramos (48 h) was > 10000 nM throughout. For the same compound, the figures for the IC50 on Lyn [3], against Src [1] and on BTK (read-out: BTK IC50) were > 5000 nM, 100 to 1000 nM and > 5000 nM, respectively.
Regarding `CCn1c(=O)c(C(C)=O)cc2cnc(Nc3ccc(C)cn3)cc21` [Compound 33], the EC50 in the experiment with DoHH2 and in the experiment on Ramos (48 hrs) was > 10000 nM each time. The IC50 at Lyn [3] was > 5000 nM; at Src [1], 1000 to 5000 nM; at BTK (read-out: BTK IC50) it was > 5000 nM.
On to `CCN(CC)CCOc1ccc(Nc2cc3c(cn2)cc(-c2cccc(SC)c2)c(=O)n3CC)nc1` [Compound 105, 7-((5-(2-(diethylamino)ethoxy)pyridin-2-yl)amino)-1-ethyl-3-(3-(methylthio)phenyl)-1,6-naphthyridin-2(1H)-one], for which the EC50 with DoHH2 and in the experiment on Ramos (48 hrs) was 1000 to 10000 nM in each case. Moreover, the IC50 on Src [4] was < 100 nM; against Lyn [2] it was 100 to 1000 nM; against BTK, 1000 to 5000 nM.
In the case of `O=c1c(-c2c(F)cccc2F)cc2cnc(Nc3ccc(F)cn3)cc2n1[C@@H]1CCNC1` [Compound 151, (R)-3-(2,6-difluorophenyl)-7-((5-fluoropyridin-2-yl)amino)-1-(pyrrolidin-3-yl)-1,6-naphthyridin-2(1H)-one], the EC50 in the experiment on DoHH2 was 1000 to 10000 nM; in the experiment on Ramos (48 hrs), > 10000 nM. Besides, the IC50 against Src [1] and on Lyn [2] was 100 to 1000 nM each time.
With `CC#Cc1cc2cnc(Nc3ccc(C)cn3)cc2n(CC)c1=O` [Compound 21], the EC50 with DoHH2 and in the experiment with Ramos (48 hrs) was 1000 to 10000 nM throughout. Moreover, the IC50 at Lyn [3] was > 5000 nM; at Src [1] it was 100 to 1000 nM; at BTK (read-out: BTK IC50) it was > 5000 nM.
On to `CCn1c(=O)c(C2CCC2)cc2cnc(Nc3ccc(C)cn3)cc21` [Compound 37, 3-Cyclobutyl-1-ethyl-7-(5-methyl-pyridin-2-ylamino)-1H-[1,6]naphthyridin-2-one], for which the EC50 in the experiment with DoHH2 and in the experiment with Ramos (48 hrs) was > 10000 nM throughout. The concentration for half-maximal inhibition (IC50) at Src [4] is > 5000 nM; at Lyn [2], 1000 to 5000 nM; against BTK, 100 to 1000 nM.
For the compound `CN1CCC(n2c(=O)c(-c3c(F)cccc3F)cc3cnc(Nc4ccc(F)cn4)cc32)C1` (centres unmarked) [Compound 85, 3-(2,6-difluorophenyl)-7-((5-fluoropyridin-2-yl)amino)-1-(1-methylpyrrolidin-3-yl)-1,6-naphthyridin-2(1H)-one], the EC50 is 1000 to 10000 nM in the experiment on DoHH2 and > 10000 nM in the experiment on Ramos (48 h). In addition, the IC50 at Src [1] and at Lyn [2] (Lyn IC50) was 1000 to 5000 nM throughout.
As for `CCN(CC)CCOc1cnc(Nc2cc3c(cn2)cc(-c2ccccc2)c(=O)n3CC)nc1` [Compound 3, 7-[5-(2-Diethylamino-ethoxy)-pyrimidin-2-ylamino]-1-ethyl-3-phenyl-1H-[1,6]naphthyridin-2-one], the EC50 was 1000 to 10000 nM with DoHH2 and > 10000 nM in the experiment on Ramos (48 hrs). Further, the IC50 on Lyn [3] is > 5000 nM; on Src [1] it was 1000 to 5000 nM; at BTK, 1000 to 5000 nM.
For the compound `CCn1c(=O)c(-c2ccccc2)cc2cnc(Nc3ccc(C(=O)N4CCOCC4)cn3)cc21` [Compound 4, 1-Ethyl-7-[5-(morpholine-4-carbonyl)-pyridin-2-ylamino]-3-phenyl-1H-[1,6]naphthyridin-2-one], the EC50 in the experiment on DoHH2 is 1000 to 10000 nM; in the experiment on Ramos (48 hrs) it was < 1000 nM. Further, the IC50 at Lyn [3] is < 100 nM; on Src [1], 100 to 1000 nM; on BTK (read-out: BTK IC50), > 5000 nM.
In the case of `CCN(CC)CCOc1ccc(Nc2cc3c(cn2)cc(C(C)C)c(=O)n3CCOC)nc1` [Compound 57, 7-[5-(2-Diethylamino-ethoxy)-pyridin-2-ylamino]-3-isopropyl-1-(2-methoxy-ethyl)-1H-[1,6]naphthyridin-2-one], the values for the EC50 in the experiment with DoHH2 and in the experiment on Ramos (48 hrs) were 1000 to 10000 nM and > 10000 nM, respectively. The results for the IC50 on Lyn [3], against Src [1] and at BTK were > 5000 nM, 100 to 1000 nM and 1000 to 5000 nM, respectively.
Regarding `CCN(CC)CCOc1ccc(Nc2cc3c(cn2)cc(C(C)C)c(=O)n3C)nc1` [Compound 59, 7-[5-(2-Diethylamino-ethoxy)-pyridin-2-ylamino]-3-isopropyl-1-methyl-1H-[1,6]naphthyridin-2-one], the EC50 in the experiment on DoHH2 is 1000 to 10000 nM; in the experiment on Ramos (48 hrs) it was > 10000 nM. Also, the IC50 on Src [1] was 100 to 1000 nM.
In the case of `CCn1c(=O)c(-c2ccccc2Cl)cc2cnc(Nc3ccc(F)cn3)cc21` [Compound 71, 3-(2-chlorophenyl)-1-ethyl-7-(5-fluoropyridin-2-ylamino)-1,6-naphthyridin-2(1H)-one], the EC50 in the experiment on DoHH2 is 1000 to 10000 nM; in the experiment on Ramos (48 hrs), > 10000 nM. The figures for the IC50 at Src [4], against Lyn [2] and at BTK were < 100 nM, 100 to 1000 nM and 1000 to 5000 nM, respectively.
The corresponding values for `CCn1c(=O)c(-c2ccccc2)cc2cnc(Nc3ccnc(O)n3)cc21` [Compound 63, 1-Ethyl-7-(2-hydroxy-pyrimidin-4-ylamino)-3-phenyl-1H-[1,6]naphthyridin-2-one] are 1000 to 10000 nM, 1000 to 10000 nM, < 100 nM, 100 to 1000 nM and 1000 to 5000 nM.
On to `CCN(CC)CCOc1ccc(Nc2cc3c(cn2)cc(-c2c(F)cc(Cl)cc2F)c(=O)n3CC)nc1` [Compound 98, 3-(4-chloro-2,6-difluorophenyl)-7-((5-(2-(diethylamino)ethoxy)pyridin-2-yl)amino)-1-ethyl-1,6-naphthyridin-2(1H)-one], for which the EC50 in the experiment on DoHH2 and in the experiment on Ramos (48 hrs) was 1000 to 10000 nM throughout. Besides, the results for the IC50 on Src [4], against Lyn [2] and at BTK (read-out: BTK IC50) were < 100 nM, 100 to 1000 nM and < 100 nM, respectively.
As to `CCn1c(=O)c(C#CC(C)(C)C)cc2cnc(Nc3ccc(C)cn3)cc21` [Compound 39], the EC50 with DoHH2 and with Ramos (48 h) was 1000 to 10000 nM each time. The values for the IC50 on Lyn [3], on Src [1] and on BTK (read-out: BTK IC50) were > 5000 nM, 100 to 1000 nM and > 5000 nM, respectively.
Turning to `O=c1c(-c2c(F)cccc2F)cc2cnc(Nc3ccc(F)cn3)cc2n1[C@H]1CCNC1` [Compound 149, (S)-3-(2,6-difluorophenyl)-7-((5-fluoropyridin-2-yl)amino)-1-(pyrrolidin-3-yl)-1,6-naphthyridin-2(1H)-one], the EC50 in the experiment with DoHH2 was 1000 to 10000 nM; with Ramos (48 hrs), > 10000 nM. Further, the IC50 at Lyn [3] was > 5000 nM; against Src [1], 1000 to 5000 nM.
`COCCn1c(=O)c(-c2c(F)cccc2F)cc2cnc(Nc3ccc(F)cn3)cc21` [Compound 126, 3-(2,6-difluorophenyl)-7-((5-fluoropyridin-2-yl)amino)-1-(2-methoxyethyl)-1,6-naphthyridin-2(1H)-one]: the values for the EC50 with DoHH2 and in the experiment with Ramos (48 h) were 1000 to 10000 nM and > 10000 nM, respectively. The IC50 at Lyn [3] was > 5000 nM; against Src [1], 1000 to 5000 nM; against BTK, 100 to 1000 nM.
For `CCN(CC)CCOc1ccc(Nc2cc3c(cn2)cc(C(C)C)c(=O)n3CC)nc1` [Compound 50, 7-[5-(2-Diethylamino-ethoxy)-pyridin-2-ylamino]-1-ethyl-3-isopropyl-1H-[1,6]naphthyridin-2-one], the EC50 was 1000 to 10000 nM in the experiment on DoHH2 and > 10000 nM with Ramos (48 hrs). Also, the IC50 against Src [1] and against Lyn [2] was 100 to 1000 nM throughout.
Turning to `CCN(CC)CCOc1ccc(Nc2cc3c(cn2)cc(-c2cccnc2)c(=O)n3CC)nc1` [Compound 103, 7-((5-(2-(diethylamino)ethoxy)pyridin-2-yl)amino)-1-ethyl-3-(pyridin-3-yl)-1,6-naphthyridin-2(1H)-one], the concentration for a half-maximal effect (EC50) was 1000 to 10000 nM in the experiment on DoHH2 and > 10000 nM with Ramos (48 hrs). In addition, the figures for the IC50 at Src [4], on Lyn [2] and at BTK (read-out: BTK IC50) were < 100 nM, 100 to 1000 nM and > 5000 nM, respectively.
On to `CCn1c(=O)c(-c2cccc(C)c2)cc2cnc(Nc3ccc(C)cn3)cc21` [Compound 41, 1-ethyl-7-(5-methylpyridin-2-ylamino)-3-m-tolyl-1,6-naphthyridin-2(1H)-one], for which the EC50 in the experiment with DoHH2 and in the experiment on Ramos (48 h) was > 10000 nM in each case. For the same compound, the IC50 at Src [4] is > 5000 nM; against Lyn [2] it was 1000 to 5000 nM; at BTK (read-out: BTK IC50), > 5000 nM.
